Results reported in patent US11377442B2, “Small molecule agonists and antagonists of NR2F6 activity” (ZANDER THERAPEUTICS, INC., priority 2016, dated 2022).
Read-outs that look alike come from different tables or passages of the source.

Target: T1, NR2F6 (Homo sapiens, UniProt P10588)
T1 construct: expressed in transfected cells; also transient transfection
T1 sequence (P10588 1-404): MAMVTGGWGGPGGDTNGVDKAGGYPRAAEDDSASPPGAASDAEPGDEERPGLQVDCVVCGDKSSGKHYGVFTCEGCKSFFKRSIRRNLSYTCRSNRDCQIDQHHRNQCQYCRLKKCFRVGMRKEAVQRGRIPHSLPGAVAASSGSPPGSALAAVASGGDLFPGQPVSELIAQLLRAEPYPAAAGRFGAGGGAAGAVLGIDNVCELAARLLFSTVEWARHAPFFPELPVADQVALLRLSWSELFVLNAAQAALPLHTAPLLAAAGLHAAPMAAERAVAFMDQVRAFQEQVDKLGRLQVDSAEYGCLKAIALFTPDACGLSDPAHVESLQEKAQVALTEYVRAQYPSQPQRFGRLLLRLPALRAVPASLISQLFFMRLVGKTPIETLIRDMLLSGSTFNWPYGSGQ
Assay: NR2F6 agonist screening, Firefly signal cmpd/DMSO
Format: cell-based
Design: Firefly NR2F6 full length, cmpd/DMSO (mean) / Firefly F4, cmpd/DMSO (mean): unit of the concentration uncertain
Conditions: for Firefly, cmpd repeat 1 / Firefly, cmpd repeat 2: raw signal; for activity (in words): screening result; for Firefly/Renilla (NR2F6 stable, clone F4): ratio Firefly/Renilla; for Firefly, NR2F6 stable (clone F4)/pGL4: ratio of Firefly in NR2F6 stable clone F4 to pGL4

[1] = C11 analogs follow set (Tables 2-10)
[2] = Concentration 2 (unit uncertain)
[3] = Concentration 10 (unit uncertain)
[4] = Concentration 40 (unit uncertain)

With `CC(C)(C)c1ccc(S(=O)(=O)c2cc3ccccc3oc2=O)cc1` [Compound C103] the “Firefly, cmpd/DMSO repeat 1” value [1] was 2.8 and the “Firefly, cmpd/DMSO repeat 2” value [1] was 1.4.
For `Cc1cc(S(=O)(=O)c2cc3cc(F)ccc3oc2=O)ccc1F` [Compound C217], the “Firefly, cmpd/DMSO repeat 1” value [1] was 1.8 and the “Firefly, cmpd/DMSO repeat 2” value [1] was 1.4.
In the case of `O=c1oc2ccc(F)cc2cc1S(=O)(=O)c1ccc(Br)cc1` [Compound C215], the “Firefly, cmpd/DMSO repeat 1” value [1] is reported as 11.6 and the “Firefly, cmpd/DMSO repeat 2” value [1] is reported as 13.8.
`O=c1oc2cc(O)ccc2cc1S(=O)(=O)c1ccc(F)c(Cl)c1` [Compound C276] was tested, and the “Firefly, cmpd/DMSO repeat 1” value [1] was 1.2 and the “Firefly, cmpd/DMSO repeat 2” value [1] was 1.3.
`Cc1cc(C)n2nc(CNS(=O)(=O)c3c(F)c(F)c(F)c(F)c3F)nc2n1` [Compound E21] was tested, and the “Firefly, cmpd/DMSO (mean)” value (mean of repeats) was 7.3, the “Firefly, cmpd repeat 1” value was 526 and the “Firefly, cmpd repeat 2” value was 306. For the same molecule, the “Firefly, cmpd/DMSO repeat 1” value was 9.5, the “Firefly, cmpd/DMSO repeat 2” value was 5.6 and the “activity (in words)” value was “desirable activity”.
With `COc1ccc2oc(=O)c(S(=O)(=O)c3ccc(C)c(C)c3)cc2c1` [Compound C144] the “Firefly, cmpd/DMSO repeat 1” value [1] was 0.9 and the “Firefly, cmpd/DMSO repeat 2” value [1] was 0.8.
With `CCOc1cccc2cc(S(=O)(=O)c3ccc(F)cc3)c(=O)oc12` [Compound C237] the “Firefly, cmpd/DMSO repeat 1” value (Table 9) was 3.5 and the “Firefly, cmpd/DMSO repeat 2” value (Table 9) was 2.9.
With `COc1ccc(S(=O)(=O)c2cc3cc(Br)cc(Br)c3oc2=O)cc1` [Compound C283] the “Firefly, cmpd/DMSO repeat 1” value (Table 11) was 1.0 and the “Firefly, cmpd/DMSO repeat 2” value (Table 11) was 1.3.
With `COc1cccc2cc(S(=O)(=O)c3ccc(C(C)(C)C)cc3)c(=O)oc12` [Compound C234] the “Firefly, cmpd/DMSO repeat 1” value (Table 9) was 2.2 and the “Firefly, cmpd/DMSO repeat 2” value (Table 9) was 1.8.
For `COc1ccc(NC(=O)c2ccc3nc(-c4ccccc4)cn3c2)c(OC)c1` [Compound P1], the “Firefly, cmpd/DMSO (mean)” value (mean of repeats) was 3.5, the “Firefly, cmpd repeat 1” value was 236 and the “Firefly, cmpd repeat 2” value was 166. The “Firefly, cmpd/DMSO repeat 1” value was 4.0, the “Firefly, cmpd/DMSO repeat 2” value was 3.0 and the “activity (in words)” value was “good activity”.
In the case of `COc1cccc2cc(S(=O)(=O)c3ccc(C)cc3)c(=O)oc12` [Compound C231], the “Firefly, cmpd/DMSO repeat 1” value (Table 9) is reported as 0.7 and the “Firefly, cmpd/DMSO repeat 2” value (Table 9) is reported as 0.9.
For `O=c1oc2ccc(Br)cc2cc1S(=O)(=O)c1cc(F)cc(F)c1` [Compound C193], the “Firefly, cmpd/DMSO repeat 1” value [1] was 1.8 and the “Firefly, cmpd/DMSO repeat 2” value [1] was 1.9.
In the case of `Cc1ccc(S(=O)(=O)c2cc3cc(Cl)ccc3oc2=O)cc1Cl` [Compound C188], the “Firefly, cmpd/DMSO repeat 1” value [1] is reported as 9.4, the “Firefly, cmpd/DMSO repeat 2” value [1] is reported as 8.7 and the “Firefly/Renilla (NR2F6 stable, clone F4)” value (Table 13) is reported as 1.2. For the same molecule, the “Firefly, NR2F6 stable (clone F4)/pGL4” value (Table 13) was 5.0, the “Firefly, cmpd/DMSO repeat 1” value (Table 13) was 9.4 and the “Firefly, cmpd/DMSO repeat 2” value (Table 13) was 8.7.
With `COc1ccc(Cl)cc1S(=O)(=O)NCc1nc2nc(C)cc(C)n2n1` [Compound E15] the “Firefly F4, cmpd/DMSO (mean)” value [2] was 1.3, the “Firefly NR2F6 full length, cmpd/DMSO (mean)” value [2] was 1.2 and the “Firefly F4, cmpd/DMSO (mean)” value [3] was 1.1. The “Firefly NR2F6 full length, cmpd/DMSO (mean)” value [3] was 0.8, the “Firefly F4, cmpd/DMSO (mean)” value [4] was 0.8 and the “Firefly NR2F6 full length, cmpd/DMSO (mean)” value [4] was 1.1.
For `COc1cc(Br)cc2cc(S(=O)(=O)c3ccccc3)c(=O)oc12` [Compound C294], the “Firefly, cmpd/DMSO repeat 1” value (Table 11) was 16.5 and the “Firefly, cmpd/DMSO repeat 2” value (Table 11) was 16.5.
`CCOc1cccc2cc(S(=O)(=O)c3ccc(Br)cc3)c(=O)oc12` [Compound C239] was tested, and the “Firefly, cmpd/DMSO repeat 1” value (Table 9) was 1.4 and the “Firefly, cmpd/DMSO repeat 2” value (Table 9) was 2.2.
In the case of `COc1ccc2cc(S(=O)(=O)c3ccc(Cl)c(Cl)c3)c(=O)oc2c1` [Compound C272], the “Firefly, cmpd/DMSO repeat 1” value [1] is reported as 4.5 and the “Firefly, cmpd/DMSO repeat 2” value [1] is reported as 3.1.
With `COc1ccc(OC)c(S(=O)(=O)c2cc3cccc(OC)c3oc2=O)c1` [Compound C249] the “Firefly, cmpd/DMSO repeat 1” value (Table 9) was 1.4 and the “Firefly, cmpd/DMSO repeat 2” value (Table 9) was 1.5.
`O=c1oc2ccc(Br)cc2cc1S(=O)(=O)c1cccc(Cl)c1` [Compound C192] was tested, and the “Firefly, cmpd/DMSO repeat 1” value [1] was 1.8 and the “Firefly, cmpd/DMSO repeat 2” value [1] was 2.4.
For `COc1ccc(S(=O)(=O)c2cc3cccc(OC)c3oc2=O)cc1OC` [Compound C247], the “Firefly, cmpd/DMSO repeat 1” value (Table 9) was 2.2 and the “Firefly, cmpd/DMSO repeat 2” value (Table 9) was 1.6.
For `Cc1ccc(CNC(=O)c2ccc3oc(=O)c(S(=O)(=O)c4ccc(Cl)cc4)cc3c2)cc1` [Compound C116], the “Firefly, cmpd/DMSO repeat 1” value [1] was 8.6 and the “Firefly, cmpd/DMSO repeat 2” value [1] was 9.0.
In the case of `COc1ccc(S(=O)(=O)c2cc3cc(Br)cc(OC)c3oc2=O)cc1` [Compound C296], the “Firefly, cmpd/DMSO repeat 1” value (Table 11) is reported as 6.0 and the “Firefly, cmpd/DMSO repeat 2” value (Table 11) is reported as 7.8.
`CC(C)c1ccc(S(=O)(=O)c2cc3cc(Br)cc(Br)c3oc2=O)cc1` [Compound C284] was tested, and the “Firefly, cmpd/DMSO repeat 1” value (Table 11) was 2.9 and the “Firefly, cmpd/DMSO repeat 2” value (Table 11) was 2.5.
In the case of `COc1ccccc1-c1noc(Cn2nccc(Cl)c2=O)n1` [Compound Z134], the “Firefly, cmpd/DMSO (mean)” value is reported as 1.1.
With `COc1ccc2oc(=O)c(S(=O)(=O)c3ccccc3)cc2c1` [Compound C206] the “Firefly, cmpd/DMSO repeat 1” value [1] was 2.1 and the “Firefly, cmpd/DMSO repeat 2” value [1] was 1.8.
For `COc1cccc2cc(S(=O)(=O)c3ccc(F)c(C)c3)c(=O)oc12` [Compound C257], the “Firefly, cmpd/DMSO repeat 1” value (Table 9) was 2.1 and the “Firefly, cmpd/DMSO repeat 2” value (Table 9) was 1.6.
With `CCOc1cccc2cc(S(=O)(=O)c3cccc(Cl)c3)c(=O)oc12` [Compound C256] the “Firefly, cmpd/DMSO repeat 1” value (Table 9) was 11.5, the “Firefly, cmpd/DMSO repeat 2” value (Table 9) was 7.9 and the “Firefly/Renilla (NR2F6 stable, clone F4)” value (Table 12) was 2.3. For the same molecule, the “Firefly, NR2F6 stable (clone F4)/pGL4” value (Table 12) was 4.5, the “Firefly, cmpd/DMSO repeat 1” value (Table 12) was 11.5 and the “Firefly, cmpd/DMSO repeat 2” value (Table 12) was 7.9.
In the case of `O=c1oc2ccc([N+](=O)[O-])cc2cc1S(=O)(=O)c1ccc(Cl)c(Cl)c1` [Compound C153], the “Firefly, cmpd/DMSO repeat 1” value [1] is reported as 6.5 and the “Firefly, cmpd/DMSO repeat 2” value [1] is reported as 9.0.
With `O=C(NCc1ccc(F)cc1)c1ccc2oc(=O)c(S(=O)(=O)c3ccc(F)cc3)cc2c1` [Compound C118] the “Firefly, cmpd/DMSO repeat 1” value [1] was 13.5, the “Firefly, cmpd/DMSO repeat 2” value [1] was 17.1 and the “Firefly/Renilla (NR2F6 stable, clone F4)” value (Table 13) was 1.1. The “Firefly, NR2F6 stable (clone F4)/pGL4” value (Table 13) was 5.9, the “Firefly, cmpd/DMSO repeat 1” value (Table 13) was 13.5 and the “Firefly, cmpd/DMSO repeat 2” value (Table 13) was 17.1.
With `COC(=O)c1ccc2oc(=O)c(S(=O)(=O)c3ccc(OC)cc3)cc2c1` [Compound C12] the “Firefly, cmpd/DMSO repeat 1” value [1] was 20.0, the “Firefly, cmpd/DMSO repeat 2” value [1] was 16.7 and the “Firefly/Renilla (NR2F6 stable, clone F4)” value (Table 12) was 2.6. For the same molecule, the “Firefly, NR2F6 stable (clone F4)/pGL4” value (Table 12) was 6.6, the “Firefly, cmpd/DMSO repeat 1” value (Table 12) was 20.0 and the “Firefly, cmpd/DMSO repeat 2” value (Table 12) was 16.7.
`Cc1ccc(S(=O)(=O)c2cc3cc(Br)ccc3oc2=O)cc1Cl` [Compound C189] was tested, and the “Firefly, cmpd/DMSO repeat 1” value [1] was 2.8 and the “Firefly, cmpd/DMSO repeat 2” value [1] was 2.2.
